From patent US20260248927A1, “TARGETED PROTEIN DEGRADATION USING BIFUNCTIONAL COMPOUNDS THAT BIND UBIQUITIN LIGASE AND TARGET MCL-1 PROTEIN” (Captor Therapeutics S.A., priority 2022, published 2026)
Counter-ions that a name gives are not always drawn.

Columns and labels:
[1] = test system: MV4-11 cells; test: Cell viability assay (CellTiter-Glo), MV4-11; assay type: cell-based; settings: Homo sapiens, MV4-11, 24 hours, 1% FBS, read-out: Average pCC50 by molecule MV4-11 (converted)
Text: (§1) The effect of various compounds of the invention on the viability of MV4-11 and ARH-77 cell lines was investigated, using the CTG protocol described below.
(§2) MV4-11 cell lines are derived from acute myeloid leukaemia and it is described in the literature as a MCL-1 dependent cell line, as opposed to lymphoblast-like ARH-77 cell line, which is described as independent of MCL-1 (Tron A E et al. Nat Commun. 2018; 9: 5341; Caenepeel S et al. Cancer Discov. 2018 December; 8(12): 1582-1597).
(§3) Cells (MV4-11 or ARH-77) were seeded on […] in a growth medium with 1% FBS. Next, compound stocks were pre-diluted in DMSO and added directly to the cell culture media (final DMSO concentration: 0.5%). Compound concentrations used in this assay: 1/3 dilutions starting at 30 μM (9 to 12 points). After 24 hours of incubation, cell viability was evaluated using CellTiter-Glo Luminescent Cell Viability Assay (Promega, cat #G7572). The luminescence signal was measured using a CLARIOstar Plus Multi-Mode Microplate Reader (574-590 nm).
(§4) Results were normalized to DMSO control. Collected data were analyzed using GraphPad Prism to calculate pCC50 values.

[2] = target: [MCL-1]-[compound of formula (I)]—[CRBN/DDB1] (Homo sapiens, UniProt Q07820+Q96SW2); test: HTRF ternary complex formation assay; assay type: binding; settings: hMcl-1 and CRBN, 180 min at 25° C.; read-out: HTRF ternary complex Average pEC50 by molecule (converted)
Description: The effect of the bifunctional compounds of the invention on the formation of a ternary complex composed of [MCL-1]-[compound of formula (I)]—[CRBN/DDB1] was investigated with HTRF ternary complex assay.
Mix of protein solution was prepared: • 48 nM hMcl-1 and 105.6 nM CRBN were prepared in PPI Europium detection buffer with 2 mM DTT. • Acceptor and donor stock solutions were diluted 100 times in PPI Europium detection buffer. Equal volumes of both reagents were mixed. Finally giving 3 nM of Streptavidin-Eu cryptate ([…]) and 6.67 nM of Anti-6×his-d2 ([…]).
5 μl of protein mix was dispensed to all wells. The tested compounds in dose-response were dispensed onto a white 384-well low volume plate (Greiner, 784075). DMSO was backfilled to all wells, resulting in a final DMSO content of 0.5%. Wells containing only DMSO served as a background. Next, 5 μl of solution with donor and acceptor was added to the wells.
The plate was sealed with transparent film and shaken using a VibroTurbulator for 60 sec at level 3. The plate was then spun down shortly (10 s, 1000 rcf) and incubated at 25° C. for 180 min.
The read-out was performed with plate reader (Pherastar, BMG Labtech) in time resolved fluorescence mode. Filterset: TR 337 665 620.
The results were analyzed as follows: • 1) an average of fluorescence for background signal was calculated and used as a negative control; • 2) raw fluorescence values for tested compounds were normalized against negative controls; • 3) bell shape curve was fitted to a gaussian distribution using a non-linear least squares Gauss-Newton algorithm; • 4) EC50 and pEC50 values were determined.

[3] = Cell viability assay (CellTiter-Glo), ARH-77; assay type: cell-based; settings: human, ARH-77 cells (lymphoblast-like, MCL-1 independent), ARH-77, 24 hours, 1% FBS, read-out: Average pCC50 by molecule ARH-77 (converted)
Text: as §1, §2, §3, §4

Sequence of [MCL-1]-[compound of formula (I)]—[CRBN/DDB1] (Q07820 whole entry): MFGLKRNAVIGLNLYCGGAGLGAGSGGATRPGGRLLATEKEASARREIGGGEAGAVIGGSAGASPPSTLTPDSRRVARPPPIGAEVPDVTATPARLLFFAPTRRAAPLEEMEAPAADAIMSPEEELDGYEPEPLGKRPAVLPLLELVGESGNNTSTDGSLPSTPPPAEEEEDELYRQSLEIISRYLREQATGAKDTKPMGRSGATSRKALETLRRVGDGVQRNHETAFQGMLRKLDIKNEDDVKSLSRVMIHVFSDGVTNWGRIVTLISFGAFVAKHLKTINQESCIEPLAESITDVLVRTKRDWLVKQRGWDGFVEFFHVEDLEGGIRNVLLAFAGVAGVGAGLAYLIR
Sequence of [MCL-1]-[compound of formula (I)]—[CRBN/DDB1] (Q96SW2 whole entry): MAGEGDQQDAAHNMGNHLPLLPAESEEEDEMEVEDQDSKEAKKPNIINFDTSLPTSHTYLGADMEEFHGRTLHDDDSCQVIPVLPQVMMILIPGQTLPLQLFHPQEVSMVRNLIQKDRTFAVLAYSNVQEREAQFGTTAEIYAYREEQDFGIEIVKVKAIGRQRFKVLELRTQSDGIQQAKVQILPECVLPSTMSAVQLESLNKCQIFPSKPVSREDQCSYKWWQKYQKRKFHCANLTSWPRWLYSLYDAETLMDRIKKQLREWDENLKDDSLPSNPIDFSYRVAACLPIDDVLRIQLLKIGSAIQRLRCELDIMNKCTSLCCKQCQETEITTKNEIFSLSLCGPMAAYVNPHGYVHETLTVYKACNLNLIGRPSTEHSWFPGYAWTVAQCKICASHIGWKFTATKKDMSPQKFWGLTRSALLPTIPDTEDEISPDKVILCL
Sequence of [MCL-1]-[compound of formula (I)]—[CRBN/DDB1] (Q16531 whole entry partner): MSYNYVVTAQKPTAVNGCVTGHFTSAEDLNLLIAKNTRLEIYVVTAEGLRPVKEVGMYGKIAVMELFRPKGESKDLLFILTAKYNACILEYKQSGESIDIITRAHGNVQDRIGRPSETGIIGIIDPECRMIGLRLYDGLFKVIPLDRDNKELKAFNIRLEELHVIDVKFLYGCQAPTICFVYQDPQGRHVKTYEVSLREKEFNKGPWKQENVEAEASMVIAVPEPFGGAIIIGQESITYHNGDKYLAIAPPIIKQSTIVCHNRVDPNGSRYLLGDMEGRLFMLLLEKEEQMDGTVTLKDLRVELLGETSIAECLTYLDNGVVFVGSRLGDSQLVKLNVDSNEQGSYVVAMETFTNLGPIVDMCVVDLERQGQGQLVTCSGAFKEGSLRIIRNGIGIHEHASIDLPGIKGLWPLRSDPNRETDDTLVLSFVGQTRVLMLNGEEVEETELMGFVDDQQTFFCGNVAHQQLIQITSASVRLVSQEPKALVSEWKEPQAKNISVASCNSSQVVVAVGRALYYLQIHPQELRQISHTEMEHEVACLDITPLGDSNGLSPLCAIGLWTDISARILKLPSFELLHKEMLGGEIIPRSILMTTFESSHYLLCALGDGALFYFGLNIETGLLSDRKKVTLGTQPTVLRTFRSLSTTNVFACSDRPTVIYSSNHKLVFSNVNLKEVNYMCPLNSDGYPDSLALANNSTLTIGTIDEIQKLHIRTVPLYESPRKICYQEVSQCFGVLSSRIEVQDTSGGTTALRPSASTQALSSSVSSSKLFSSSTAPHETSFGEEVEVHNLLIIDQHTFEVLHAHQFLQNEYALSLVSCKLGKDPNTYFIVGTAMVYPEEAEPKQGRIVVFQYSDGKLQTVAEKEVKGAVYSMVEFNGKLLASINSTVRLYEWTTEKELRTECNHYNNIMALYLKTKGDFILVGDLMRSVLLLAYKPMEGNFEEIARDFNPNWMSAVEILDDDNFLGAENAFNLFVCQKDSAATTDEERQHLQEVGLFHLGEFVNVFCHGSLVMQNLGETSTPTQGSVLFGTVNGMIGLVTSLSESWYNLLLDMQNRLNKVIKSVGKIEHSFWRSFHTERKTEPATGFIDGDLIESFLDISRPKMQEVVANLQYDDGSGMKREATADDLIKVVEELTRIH

EC50 [2] [nM] | SMILES | CC50 [1] [nM] | CC50 at 24 h [3] [nM]
< 100 | Cc1nc2c(OCC(=O)N3CCN(CCn4c(C(=O)O)c(CCCOc5cccc6cc(F)ccc56)c5ccc(Cl)c(-c6c(C)nn(C)c6C)c54)CC3)cccc2cc1C1CCC(=O)NC1=O (stereo not shown) [Compound 4, 6-Chloro-1-{2-[4-(2-{[3-(2,6-dioxopiperidin-3-yl)-2-methylquinolin-8-yl]oxy}acetyl)piperazin-1-yl]ethyl}-3-{3-[(6-fluoronaphthalen-1-yl)oxy]propyl}-7-(1,3,5-trimethyl-1H-pyrazol-4-yl)-1H-indole-2-carboxylic acid] | < 316 | > 10000
< 31.6 | Cc1nn(C)c(C)c1-c1c(Cl)ccc2c(CCCOc3cccc4cc(F)ccc34)c(C(=O)O)n(CCN3CCN(C(=O)COc4cc(N5CCCCC5)cc5c4CN(C4CCC(=O)NC4=O)C5=O)CC3)c12 (stereo not shown) [Compound 14, 6-Chloro-1-{2-[4-(2-{[2-(2,6-dioxopiperidin-3-yl)-1-oxo-6-(piperidin-1-yl)-2,3-dihydro-1H-isoindol-4-yl]oxy}acetyl)piperazin-1-yl]ethyl}-3-{3-[(6-fluoronaphthalen-1-yl)oxy]propyl}-7-(1,3,5-trimethyl-1H-pyrazol-4-yl)-1H-indole-2-carboxylic acid] | < 316 | > 3160
< 100 | Cc1nc2ccc(C(=O)NCC(=O)N3CCN(CCn4c(C(=O)O)c(CCCOc5cccc6cc(F)ccc56)c5ccc(Cl)c(-c6c(C)nn(C)c6C)c54)CC3)cc2cc1C1CCC(=O)NC1=O (stereo not shown) [Compound 5, 6-Chloro-1-{2-[4-(2-{[3-(2,6-dioxopiperidin-3-yl)-2-methylquinolin-6-yl]formamido}acetyl)piperazin-1-yl]ethyl}-3-{3-[(6-fluoronaphthalen-1-yl)oxy]propyl}-7-(1,3,5-trimethyl-1H-pyrazol-4-yl)-1H-indole-2-carboxylic acid] |  | > 10000
< 100 | COCCOCCn1nc(C)c(-c2c(Cl)ccc3c(CCCOc4cccc5cc(F)ccc45)c(C(=O)O)n(CCN4CCN(C(=O)COc5cccc6c5CN(C5CCC(=O)NC5=O)C6=O)CC4)c23)c1C (stereo not shown) [Compound 147, 1-(2-(2-Carboxy-6-chloro-3-(3-((6-fluoronaphthalen-1-yl)oxy)propyl)-7-(1-(2-(2-methoxyethoxy)ethyl)-3,5-dimethyl-1H-pyrazol-4-yl)-1H-indol-1-yl)ethyl)-4-(2-((2-(2,6-dioxopiperidin-3-yl)-1-oxoisoindolin-4-yl)oxy)acetyl)piperazin-1-ium trifluoroacetate] | < 100 | > 31600
< 316 | Cc1nn(C)c(C)c1-c1c(Cl)ccc2c(CCCOc3cccc4cc(F)ccc34)c(C(=O)O)n(CCN3CCN(C(=O)COc4cccc5c4C(C)N(C4CCC(=O)NC4=O)C5=O)CC3)c12 (stereo not shown) [Compound 15, 6-Chloro-1-{2-[4-(2-{[2-(2,6-dioxopiperidin-3-yl)-3-methyl-1-oxo-2,3-dihydro-1H-isoindol-4-yl]oxy}acetyl)piperazin-1-yl]ethyl}-3-{3-[(6-fluoronaphthalen-1-yl)oxy]propyl}-7-(1,3,5-trimethyl-1H-pyrazol-4-yl)-1H-indole-2-carboxylic acid] | < 100 | > 10000
< 100 | Cc1nn(C)c(C)c1-c1c(Cl)ccc2c(CCCOc3cccc4cc(F)ccc34)c(C(=O)O)n(CCN3CCN(C(=O)COc4ccc5c(c4)n(C)c(=O)n5C4CCC(=O)NC4=O)CC3)c12 (stereo not shown) [Compound 22, 6-Chloro-1-(2-(4-(2-((1-(2,6-dioxopiperidin-3-yl)-3-methyl-2-oxo-2,3-dihydro-1H-benzo[d]imidazol-5-yl)oxy)acetyl)piperazin-1-yl)ethyl)-3-(3-((6-fluoronaphthalen-1-yl)oxy)propyl)-7-(1,3,5-trimethyl-1H-pyrazol-4-yl)-1H-indole-2-carboxylic acid] | < 31.6 | > 31600
< 100 | Cc1nn(C)c(C)c1-c1c(Cl)ccc2c(CCCOc3cccc4cc(F)ccc34)c(C(=O)O)n(CCN3CCN(CC(=O)Nc4cccc5c4CN(C4CCC(=O)NC4=O)C5=O)CC3)c12 (stereo not shown) [Compound 29, 6-Chloro-1-{2-[4-({[2-(2,6-dioxopiperidin-3-yl)-1-oxo-2,3-dihydro-1H-isoindol-4-yl]carbamoyl}methyl)piperazin-1-yl]ethyl}-3-{3-[(6-fluoronaphthalen-1-yl)oxy]propyl}-7-(1,3,5-trimethyl-1H-pyrazol-4-yl)-1H-indole-2-carboxylic acid] |  | > 10000
< 31.6 | Cc1nc2c(NCC(=O)N3CCN(CCn4c(C(=O)O)c(CCCOc5cccc6cc(F)ccc56)c5ccc(Cl)c(-c6c(C)nn(C)c6C)c54)CC3)cccc2cc1N1CCC(=O)NC1=O [Compound 146, 6-Chloro-1-(2-(4-((3-(2,4-dioxotetrahydropyrimidin-1(2H)-yl)-2-methylquinolin-8-yl)glycyl)piperazin-1-yl)ethyl)-3-(3-((6-fluoronaphthalen-1-yl)oxy)propyl)-7-(1,3,5-trimethyl-1H-pyrazol-4-yl)-1H-indole-2-carboxylic acid] | < 100 | 
 | CCc1cc(OCC(=O)N2CCN(CCn3c(C(=O)O)c(CCCOc4cccc5cc(F)ccc45)c4ccc(Cl)c(-c5c(C)nn(C)c5C)c43)CC2)ccc1C(=O)NC1CCC(=O)NC1=O (stereo not shown) [Compound 25, 6-Chloro-1-(2-(4-(2-(4-((2,6-dioxopiperidin-3-yl)carbamoyl)-3-ethylphenoxy)acetyl)piperazin-1-yl)ethyl)-3-(3-((6-fluoronaphthalen-1-yl)oxy)propyl)-7-(1,3,5-trimethyl-1H-pyrazol-4-yl)-1H-indole-2-carboxylic acid] |  | > 3160
< 100 | Cc1nn(C)c(C)c1-c1c(Cl)ccc2c(CCCOc3cccc4cc(F)ccc34)c(C(=O)O)n(CCN3CCN(CC(=O)NCc4ccc5c(c4)CN(C4CCC(=O)NC4=O)C5=O)CC3)c12 (stereo not shown) [Compound 26, 6-Chloro-1-(2-{4-[({[2-(2,6-dioxopiperidin-3-yl)-1-oxo-2,3-dihydro-1H-isoindol-5-yl]methyl}carbamoyl)methyl]piperazin-1-yl}ethyl)-3-{3-[(6-fluoronaphthalen-1-yl)oxy]propyl}-7-(1,3,5-trimethyl-1H-pyrazol-4-yl)-1H-indole-2-carboxylic acid] |  | > 31600
< 316 | Cc1nn(C)c(C)c1-c1c(Cl)ccc2c(CCCOc3cccc4cc(F)ccc34)c(C(=O)O)n(CCN3CCN(C(=O)COc4cc(N(C)C)cc5c4CN(C4CCC(=O)NC4=O)C5=O)CC3)c12 (stereo not shown) [Compound 13, 6-Chloro-1-{2-[4-(2-{[6-(dimethylamino)-2-(2,6-dioxopiperidin-3-yl)-1-oxo-2,3-dihydro-1H-isoindol-4-yl]oxy}acetyl)piperazin-1-yl]ethyl}-3-{3-[(6-fluoronaphthalen-1-yl)oxy]propyl}-7-(1,3,5-trimethyl-1H-pyrazol-4-yl)-1H-indole-2-carboxylic acid] |  | > 10000
< 100 | Cc1cc(OCCCc2c(C(=O)O)n(CCN3CCN(CC(=O)NCc4ccc5c(c4)CN(C4CCC(=O)NC4=O)C5=O)CC3)c3c(-c4c(C)nn(C)c4C)c(Cl)ccc23)cc(C)c1Cl (stereo not shown) [Compound 27, 6-Chloro-3-[3-(4-chloro-3,5-dimethylphenoxy)propyl]-1-(2-{4-[({[2-(2,6-dioxopiperidin-3-yl)-1-oxo-2,3-dihydro-1H-isoindol-5-yl]methyl}carbamoyl)methyl]piperazin-1-yl}ethyl)-7-(1,3,5-trimethyl-1H-pyrazol-4-yl)-1H-indole-2-carboxylic acid] |  | 
 | CCc1c(OCC(=O)N2CCN(CCn3c(C(=O)O)c(CCCOc4cccc5cc(F)ccc45)c4ccc(Cl)c(-c5c(C)nn(C)c5C)c43)CC2)cccc1C(=O)NC1CCC(=O)NC1=O (stereo not shown) [Compound 24, 6-Chloro-1-{2-[4-(2-{3-[(2,6-dioxopiperidin-3-yl)carbamoyl]-2-ethylphenoxy}acetyl)piperazin-1-yl]ethyl}-3-{3-[(6-fluoronaphthalen-1-yl)oxy]propyl}-7-(1,3,5-trimethyl-1H-pyrazol-4-yl)-1H-indole-2-carboxylic acid] |  | > 10000
